{"source": "patent US20030162796A1", "about": "“Pharmaceutical composition for the treatment of disorders of non-human mammals” (priority 2001, published 2003)", "key": {"[1]": {"tested_on": "SLU-4 cells", "experiment": "3H-Thymidin proliferation assay, SLU-4", "type": "cell-based, canine", "conditions": "inhibitor 5 nM-10000 nM", "experimental": "(§1) The ability of BIBX1382 to inhibit the proliferation of cells in culture was tested with a ^3H-Thymidin proliferation assays. This assay was performed with three tumor cell lines (SLU-1, SLU-4, SH1b) and a normal cell line (CRL-6234).\n(§2) A pilot experiment with 500 to 12.000 cells per well in a 96-well plate in the presence of different concentrations of FCS (0% to 10%) was performed. After different proliferation times (24 h, 48 h, 72 h and 96 h), 10 μl ^3H-Thymidin (1:100 in PBS) were added, after incubation the plate was frozen, then thawed and the cells were harvested. The ^3H-Thymidin incorporation rate was determined. […] To determine a possible growth inhibitory effect of the inhibitor BIBX1382 on the cell lines, different concentrations (5 nM-10000 nM) of the inhibitor were used. Again ^3H-Thymidin was added, after incubation the plate was frozen, then thawed and the cells were harvested. The ^3H-Thymidin incorporation rate was determined in dependance of the concentration of inhibitor."}, "[2]": {"experiment": "Plasma levels of BIBX1382 of the treated mice", "type": "in vivo, nude mice", "conditions": "for concentration at 2 h / concentration at 6 h / concentration at 24 h: nude, mouse, plasma, oral, read-out: plasma level, mean; for concentration at 2 h: 2 h after last compound administration on day 46; for concentration at 6 h: 6 h after last compound administration on day 46; for concentration at 24 h: 24 h after last compound administration on day 46", "experimental": "(§3) When tumors were established and had reached diameters of approximately 5 mm as measured with a calliper, mice were randomly distributed into groups of 10 animals so that each tumor size was equally represented in each treatment group. The time span between cell injection and randomisation/start of treatment was sixteen days. Starting ten days after randomisation, mice were treated once daily (at 24 hour intervals) with various doses of the test compound. Administration was intragastral using a gavage needle (Infusionskanule Olive A, Acufirm, No. 14 64 11-1). Therefore, the compound was suspended in 2.5% aqueous HP-beta-CD (hydroxy-propyl-beta-cyclodextrine)/1% aqueous Natrosol (hydroxyethylcellulose). Control mice received the vehicle only. The administration volume was 2.5 to 10 ml per kg mouse body weight. The solutions were proportioned and kept at −20° C.\n(§4) The low dose group received 25 mg/kg/day (day 10-22) and 50 mg/kg/day (day 23-46) of BIBX1382; whereas the high dose group received 50 mg/kg/day (day 10-22), 70 mg/kg/day (day 23-30) and 100 mg/kg/day (day 31-46) of BIBX1382. The control group was treated with vehicle only.\nWith plasma levels of […] at 2 hours after oral compound administration a reduction of the growth rate to a T/C value of 62% was achieved."}, "[3]": {"tested_on": "SLU-1 tumors", "experiment": "Effect on tumor growth in nude mice (SLU-1 subcutaneous xenograft)", "type": "in vivo", "experimental": "The cell line SLU-1 was cultured as described in Example 2. For use in tumor experiments, cells were trypsinised, washed and suspended in PBS+5% FCS at 10^7 cells/ml. 2×10^6 SLU-1 cells were injected into 40 nude mice (5-10 week-old female Hsd:NMRI-nu/nu purchased from Harlan, The Netherlands for the in vivo experiment with BIBX1382.\nas §3, §4\nTumors were measured three times a week (Monday, Wednesday and Friday) with a calliper. Volumes [in mm^3] were then calculated according to the formula (tumor volume=length*diameter^2*π/6). To monitor side effects of treatment, mice were inspected daily for abnormalities and weighed three times (Monday, Wednesday and Friday) a week.\nTumor volumes were expressed as mean absolute tumor volumes [in mm^3] and plotted over days of treatment.\nThe specific relative tumor volumes (T/C [%], i.e. the mean relative tumor volumes of groups of compound-treated tumors in % of the mean relative tumor volume of the vehicle-treated control tumors: T/C [%]=100*mean Vrel compound-treated/mean Vrel vehicle-treated) were determined on the day following the final day of treatment.\nExperiments were usually terminated when vehicle control mice had to be killed because of large tumor sizes (1200 to 1700 mm^3)."}, "[4]": {"tested_on": "SH1b cells", "experiment": "3H-Thymidin proliferation assay, SH1b", "type": "cell-based, canine", "conditions": "FIG. 3", "experimental": "as §1, §2\nThe ^3H-Thymidin proliferation assay was also done with the tumor cell line SH1b."}, "[5]": {"tested_on": "CRL-6234 cells", "experiment": "3H-Thymidin proliferation assay, CRL-6234 (normal cell line)", "type": "cell-based, canine", "experimental": "as §1, §2"}, "[6]": {"tested_on": "SLU-1 cells", "experiment": "3H-Thymidin proliferation assay, SLU-1", "type": "cell-based, canine", "conditions": "inhibitor 5 nM-10000 nM", "experimental": "as §1, §2"}}, "note": "Where two headings read alike, the source gives them in different places."}
{"smiles": "CN1CCC(Nc2ncc3ncnc(Nc4ccc(F)c(Cl)c4)c3n2)CC1", "note": "[BIBX1382, 4-((3-chloro-4-fluoro-phenyl)amino)-6-(1-methyl-4-piperidinyl-amino)-pyrimido(5,4d)pyrimidine]", "values": [{"measurement": "proliferation rate (3H-Thymidin incorporation)", "setting": "[1]", "value": "not affected"}, {"measurement": "plasma level", "setting": "[2]; 2 hours after oral compound administration, level giving T/C 38%", "value": "approximately 4000 mmol/l"}, {"measurement": "concentration at 2 h", "setting": "[2]; 50 mg/kg", "value": 3.17, "unit": "µM"}, {"measurement": "concentration at 6 h", "setting": "[2]; 50 mg/kg", "value": 2.85, "unit": "µM"}, {"measurement": "concentration at 24 h", "setting": "[2]; 50 mg/kg", "value": 0.394, "unit": "µM"}, {"measurement": "concentration at 2 h", "setting": "[2]; 100 mg/kg", "value": 4.16, "unit": "µM"}, {"measurement": "concentration at 6 h", "setting": "[2]; 100 mg/kg", "value": 4.09, "unit": "µM"}, {"measurement": "concentration at 24 h", "setting": "[2]; 100 mg/kg", "value": 0.591, "unit": "µM"}, {"measurement": "SLU-1 tumor growth", "setting": "[3]; all tested doses, oral once daily, FIGS. 4 and 5", "value": "influenced SLU-1 tumor growth at all tested doses"}, {"measurement": "T/C values compared to the vehicle control group (standard T-test)", "setting": "[3]; both dose groups (low and high)", "value": "significantly lower"}, {"measurement": "T/C", "setting": "[3]; high dose group (Group 2), 50 → 70 → 100 mg/kg/day, after 100 mg/kg/day (day 31-46), day 47", "value": 38, "unit": "%"}, {"measurement": "T/C", "setting": "[3]; high dose group after 50 mg/kg/day (day 10-22)", "value": 52, "unit": "%"}, {"measurement": "T/C", "setting": "[3]; high dose group after 70 mg/kg/day (day 23-30)", "value": 53, "unit": "%"}, {"measurement": "increase in tumor size at maximum", "setting": "[3]; high dose group, 50 mg/kg/day, day 10-22, all ten tumors", "value": "5-6 fold"}, {"measurement": "increase in tumor size", "setting": "[3]; high dose group, 70 mg/kg/day, day 23-30", "value": "about 2 fold"}, {"measurement": "increase in tumor size", "setting": "[3]; high dose group, 100 mg/kg/day, day 31-46", "value": "1.5-1.9 fold"}, {"measurement": "increase in tumor size on average", "setting": "[3]; high dose group, whole period of treatment", "value": 20, "unit": "fold"}, {"measurement": "T/C", "setting": "[3]; low dose group (Group 1), 25 → 50 mg/kg/day, after 50 mg/kg/day (day 23-46), day 47", "value": 62, "unit": "%"}, {"measurement": "T/C", "setting": "[3]; low dose group after 25 mg/kg/day (day 10-22)", "value": 78, "unit": "%"}, {"measurement": "increase in tumor size", "setting": "[3]; low dose group, 25 mg/kg/day, day 10-22, 9 of 10 tumors", "value": 8, "unit": "fold"}, {"measurement": "tumor volume change", "setting": "[3]; low dose group, 25 mg/kg/day, day 10-22, one of 10 tumors", "value": "did not change at all"}, {"measurement": "increase in tumor size", "setting": "[3]; low dose group, 50 mg/kg/day, day 23-46, all 10 tumors", "value": "3-6 fold"}, {"measurement": "increase in tumor size on average", "setting": "[3]; low dose group, whole period of treatment (day 10-46)", "value": 35, "unit": "fold"}, {"measurement": "proliferation (3H-Thymidin incorporation)", "setting": "[4]", "value": "inhibited in its proliferation time"}, {"measurement": "effect on normal cell line at high concentrations", "setting": "[5]; high concentrations", "value": "toxic effects at high concentrations"}, {"measurement": "proliferation at lower concentration", "setting": "[5]; lower concentration", "value": "not inhibited"}, {"measurement": "proliferation rate (3H-Thymidin incorporation)", "setting": "[6]", "value": "inhibited in their proliferation rate"}]}
